Laboratory results: patent US20240398825A1 (NANJING DELOVA BIOTECH CO. LTD., priority 2018, published 2024)
≈ marks a conversion by molar mass, not a printed value.

How the values were obtained:
[1] = Solubility of meloxicam in organic base or alkaline amino acid solutions (Comparative Example A4); format: physicochemical; conditions: for solubility at 24 h: 25 °C, shaking at 25° C. for 24 h, n = 3
[2] = Solubility of meloxicam in PEG 200, PEG300 or PEG600; format: physicochemical; conditions: 25 °C, organic solvent or mixture, thermodynamic from solid, read-out: Solubility (shaking at 25° C. for 24 h)
physchem = conditions: 25 °C, water, thermodynamic from solid
[3] = cited from earlier work
[4] = Solubility study of meloxicam in injectable solution; format: physicochemical; conditions: aqueous with cosolvent or surfactant or cyclodextrin; PEG 400 300 mg/mL, pH 7.7-8.0 (NaOH/citric acid)
[5] = cited from earlier work; remark: listed apart in the source

solubility at 24 h ([1]; Tris solution, aqueous buffer, thermodynamic from solid, Tris 5 mg/mL): 5.54 mg/mL (≈ 15.8 mM)
solubility at 24 h ([1]; Tris solution, aqueous buffer, thermodynamic from solid, Tris 10 mg/mL): 9.07 mg/mL (≈ 25.8 mM)
solubility at 24 h ([1]; Tris solution, aqueous buffer, thermodynamic from solid, Tris 15 mg/mL): 11.4 mg/mL (≈ 32.4 mM)
solubility at 24 h ([1]; Tris solution, aqueous buffer, thermodynamic from solid, Tris 20 mg/mL): 14.3 mg/mL (≈ 40.6 mM)
solubility at 24 h ([1]; Tris solution, aqueous buffer, thermodynamic from solid, Tris 30 mg/mL): 18.3 mg/mL (≈ 52.1 mM)
stability of the solutions in organic base or basic amino acid ([1]; after standing overnight at room temperature): Crystals were precipitated
solubility at 24 h ([1]; arginine solution, aqueous buffer, thermodynamic from solid, Arginine 7 mg/mL): 11.2 mg/mL (≈ 32 mM)
solubility at 24 h ([1]; arginine solution, aqueous buffer, thermodynamic from solid, Arginine 14 mg/mL): 11.6 mg/mL (≈ 32.9 mM)
solubility at 24 h ([1]; arginine solution, aqueous buffer, thermodynamic from solid, Arginine 20 mg/mL): 11.6 mg/mL (≈ 33 mM)
solubility at 24 h ([1]; arginine solution, aqueous buffer, thermodynamic from solid, Arginine 30 mg/mL): 12.8 mg/mL (≈ 36.4 mM)
solubility at 24 h ([1]; arginine solution, aqueous buffer, thermodynamic from solid, Arginine 40 mg/mL): 14.2 mg/mL (≈ 40.5 mM)
solubility ([1]; high concentration organic base or basic amino acid solution, aqueous buffer, thermodynamic from solid, solubility of meloxicam in a high concentration organic base or basic amino acid, high concentration organic base or basic amino acid): ≥ 10 mg/mL
solubility at 24 h ([1]; lysine solution, aqueous buffer, thermodynamic from solid, Lysine 6 mg/mL): 10.5 mg/mL (≈ 29.7 mM)
solubility at 24 h ([1]; lysine solution, aqueous buffer, thermodynamic from solid, Lysine 19 mg/mL): 29.8 mg/mL (≈ 84.7 mM)
solubility at 24 h ([1]; lysine solution, aqueous buffer, thermodynamic from solid, Lysine 24 mg/mL): 35.9 mg/mL (≈ 102 mM)
solubility at 24 h ([1]; meglumine solution, aqueous buffer, thermodynamic from solid, Meglumine 5 mg/mL): 8.01 mg/mL (≈ 22.8 mM)
solubility at 24 h ([1]; meglumine solution, aqueous buffer, thermodynamic from solid, Meglumine 10 mg/mL): 17.8 mg/mL (≈ 50.7 mM)
solubility at 24 h ([1]; meglumine solution, aqueous buffer, thermodynamic from solid, Meglumine 15 mg/mL): 24.6 mg/mL (≈ 70.1 mM)
solubility at 24 h ([2]; Cosolvent PEG200): 3.6 mg/mL (≈ 10.2 mM)
solubility at 24 h ([2]; Cosolvent PEG300): 2.81 mg/mL (≈ 8 mM)
solubility at 24 h ([2]; Cosolvent PEG600): 3.18 mg/mL (≈ 9.05 mM)
solubility at 24 h (physchem): 0.02 mg/mL (≈ 0.0569 mM)
solubility [4]: 60 mg/mL (≈ 171 mM)
SMILES: Cc1cnc(NC(=O)C2=C(O)c3ccccc3S(=O)(=O)N2C)s1 [Meloxicam, 4-hydroxy-2-methyl-N-(5-methyl-2-thiazolyl)-2H-1,2-benzothiazine-3-carboxamide-1,1-dioxide]
maximum solubility in pure PEG 400 ([3]; Zaira J. Cárdenas et al.): 9.2 mg/mL
solubility of meloxicam in pure PEG 400 ([3]; found by Neelam Seeder et al.): 3.763 mg/mL
solubility in water ([5]; 25° C.): 0.003414 mg/mL (≈ 0.00972 mM)
solubility in chloroform, acetone and ethanol [5]: slightly soluble
